One assay has as its system Jurkat. Briefly: inhibition of proliferation by [3H]thymidine incorporation, Jurkat. Format: cell-based. The settings on record: Jurkat cells (CD3); Fig.3. Here is the method:
Monoclonal antibodies were conjugated with ß-amanitin-N-hydoxysuccinimide ester by incubating the antibody in PBS (2mg/mL) with 10-30 equivalents of the activated ß-amanitin derivative at 4°C under gentle shaking. After reaction for 16h the protein derivative was separated from unreacted amanitin by gelfiltration chromatography on Sephadex G25 using PBS as solvent. The combined protein fractions were concentrated to a protein concentration of ca 2 mg/mL and a toxin concentration of ca. 5 x 10^-5M. The ratio toxin : mAB was in the range of 5-15 : 1.
Three different cell lines, MCF-7, Jurkat, and Raji, exposing the specific receptors EpCAM, CD3, and CD71, respectively, were tested for the inhibition of proliferation by such ß-amanitin-monoclonal antibody conjugates, as followed by [^3H]thymidine incorporation. […] In all cases was amanitin conjugated to a specific antibody distinctly more toxic to the corresponding cell line than free amanitin, or amanitin conjugated to unspecific antibodies.

In assay [1] the target is DNA-dependent RNA polymerase II of mammalian cells (Homo sapiens, UniProt P24928+P30876). The settings on record: complex between amanitin and RNA-polymerase II; cited from earlier work.
Another assay has as its system Jurkat cells. Briefly: apoptosis in cultures of Jurkat cells incubated with toxin. Conditions: own unpublished results. Type of assay: cell-based. The text has this:
Amatoxins (α-amanitin, β-amanitin, amanin) are cyclic peptides composed of 8 amino acids. They can be isolated from Amanita phalloides mushrooms or prepared from the building blocks by synthesis. Amatoxins inhibit specifically the DNA-dependent RNA polymerase II of mammalian cells, and by this transcription and protein biosynthesis of the cells affected. Inhibition of transcription in a cell causes stop of growth and proliferation. Though not covalently bound, the complex between amanitin and RNA-polymerase II is very tight (KD = 3nM). Dissociation of amanitin from the enzyme is a very slow process what makes recovery of an affected cell unlikely.
Phallotoxins (phalloidin, phallacidin, aminophalloidin) are cyclic peptides composed of 7 aminoacids. They bind specifically to the cytoskeletal protein actin in its polymeric form (microfilaments). By this, they prevent depolymerization of the microfilaments and disturb the proper function of the actin cytoskeleton. The actin cytoskeleton is a dense meshwork of microfilaments undergoing, under the control of actin-associated proteins, rapid cycles of assembly and disassembly essential for dynamic processes such as cell division and migration. Likewise, invasion by metastatic cells is thought to be dependent on actin. […]

A further assay has as its system actin. Kind of assay: binding to actin.

As for OKT3, the “times more inhibitory for the proliferation than the amanitin conjugate of an unspecific monoclonal antibody (ALH-419)” value with Jurkat is recorded as 330 times.
For the substance amanitin, in assay [1], the Kd is 3 nM.
Turning to phalloidin oleate, the “programmed cell death (apoptosis)” value with Jurkat cells is reported as “caused apoptosis”.
As for thiopropionyl-aminophalloidin, the “actin binding compared with phalloidin” value with actin was “binds actin as tightly as phalloidin itself”.
Turning to α-amanitin, the “programmed cell death (apoptosis)” value with Jurkat cells was “undergoes programmed cell death (apoptosis)”.

What is called Kd is the concentration at which binding is half-saturated.
